Experimental data from patent publication US20080102476A1, “Analyzing Histamine H4 Receptor-Mediated Effects In Whole Blood” (priority 2003, published 2008).
Read-outs that look alike come from different tables or passages of the source. Values belong to the compound of their own block, whether it stands above or below them.

Tests used:
[1] = tested on: eosinophils in human whole blood; test: Whole blood eosinophil shape change GAFS assay (Example 1A); assay type: cell-based
Protocol: Starting materials were obtained as described in the experiments above. Human whole blood samples were used to study eosinophil shape change response. Human blood samples collected from healthy donors were treated with 3.8% tri-sodium citrate as anti-coagulator (or other anti-coagulators) and centrifuges at 300 rpm. The samples were used for experiments within 1 hour. Aliquots of 80 μl whole blood were pretreated with histamine receptor analogues (such as H1 receptor antagonist diphenhydramine, H2 antagonist ranitidine, H4 receptor antagonists thioperamide and Compound A, and H3 receptor antagonist Compound B) for 10 minutes before addition of histamine or chemokines in 1.2-ml polypropylene cluster tubes (Costar, Cambridge, Mass.) in a final volume of 100 μl. The tubes were placed in a 37° C. water bath for 10 min, after which they were transferred to an ice-water bath, and 250 μl of ice-cold fixative (2% paraformaldehyde in PBS or other fixatives) was added to terminate the reaction and to maintain the cell shape change. Red cells were lysed with 3 ml Qiagen lysis solution (Qiagen, Valencia, Calif.) for 10 minutes at 4° C. Leukocytes were recovered by centrifugation at 2000 rpm for 5 minutes, washed once with either PBS containing 10 mM Ca^2+ and Mg^2+, 10 mM HEPES, 10 mM glucose, and 0.1% BSA (for FIGS. 10 and 11) or PBS containing 0.5% BSA and 2 mM EDTA (for other figures), and then resuspended in the same buffer. The cell shape change was analyzed on a FACScan flow cytometer (Becton Dickinson, Mountain View, Calif.). Eosinophils were gated based on their high autofluorescence relative to neutrophils and shape change was monitored in forward scatter signals. Data were acquired for 1500 high-fluorescence eosinophil events. The results are expressed as the percentage increase in FSC compared to unstimulated cells. Results obtained are provided in the Tables I and II, below, which also correspond to FIG. 7 and FIG. 8, respectively.

human eosinophils [2] = test: Eosinophil shape change in human PMNL by flow cytometry (GAFS assay); assay type: cell-based; settings: for IC50: Homo sapiens, Eosinophil, 1 μM histamine, FIG. 4B; for effect on histamine-induced eosinophil shape change: antagonist 10 μM, 1 μM histamine 10 min
Protocol: PMNL were prepared as described above and cells were resuspended in assay buffer (PBS containing 10 mM Ca^2+ and Mg^2+, 10 mM HEPES, 10 mM glucose, and 0.1% BSA, pH 7.2-7.4). Aliquots of cells (5×10^5 PMNL in 80 μl assay buffer) were pretreated with histamine receptor analogues (diphenhydramine, ranitidine, thioperamide, Compound A or H3 receptor antagonist) for 10 min at room temperature before addition of histamine or chemokines in 1.2-ml polypropylene cluster tubes (Costar, Cambridge, Mass.) in a final volume of 100 μl. The tubes were placed in a 37° C. water bath for 10 min (or as indicated), after which they were transferred to an ice-water bath, and 250 μl of ice-cold fixative (2% paraformaldehyde in PBS) was added to terminate the reaction and to maintain the cell shape change. […] Cell shape change was monitored in forward scatter signals. To identify eosinophils and neutrophils in PMNL, cells were stained on ice for 30 min with saturating concentrations of FITC-conjugated anti-CCR3 or anti-CD16 antibodies, which are specific for eosinophils or neutrophils, respectively. Samples after antibody staining were analyzed in flow cytometry.

[3] = tested on: eosinophils in human whole blood; test: Whole blood eosinophil shape change assay with ranitidine co-treatment (Example 1B); assay type: cell-based; settings: FIG. 11
Protocol: In this example, starting materials were obtained as described in Example 1A. Human whole blood samples were used to study eosinophil shape change response. Human blood samples collected from healthy donors were treated with 3.8% tri-sodium citrate as anti-coagulator (or other anti-coagulators) and centrifuges at 300 rpm. The samples were used for experiments within 1 hour. […] The cell shape change was analyzed on a FACScan flow cytometer (Becton Dickinson, Mountain View, Calif.). Eosinophils were gated based on their high autofluorescence relative to neutrophils and shape change was monitored in forward scatter signals. Data were acquired for 1500 high-fluorescence eosinophil events. Results are expressed as the percentage increase in FSC compared to unstimulated cells.

[4] = tested on: purified human eosinophils; test: In vitro eosinophil chemotaxis assay (Transwell); assay type: cell-based; settings: for effect on histamine-induced eosinophil chemotaxis: antagonist 10 μM in both chambers
Protocol: Transwells (Costar, Cambridge, Mass.) with 5 μm pore size were coated with 100 μl of 100 ng/ml human fibronectin (Sigma) for 2 h at room temperature. After removal of excess fibronectin, 600 μl of RPMI-1640 medium containing 0.5% BSA and different concentrations of histamine (0.01-100 μM) was added to the bottom chamber, Eosinophils (2×10^5/well) were added to the top chamber. Histamine receptor analogues (diphenhydramine, ranitidine, thioperamide, Compound A or Compound B) were added to both the top and bottom chambers to a final concentration of 10 μM or at other concentration as stated in figure legends. The plates were incubated for 2 h at 37° C. and the number of cells migrated to the bottom chamber was counted for 1 min using flow cytometer.

human eosinophils [5] = test: Cell surface expression of adhesion molecules on eosinophils by flow cytometry; assay type: cell-based; settings: for effect on histamine-induced up-regulation of CD11b/CD18 and CD54 expression: antagonist 10 μM
Protocol: Purified eosinophils were used to study cell surface expression of adhesion molecules. Eosinophils were resuspended in PBS containing 10 mM Ca^2+ and Mg^2+, 10 mM HEPES, 10 mM glucose, and 0.1% BSA, pH 7.2-7.4. Aliquots of cells (5×10^5 PMNL) were pretreated with histamine receptor analogues (as described above) for 10 min before addition of histamine or chemokines in 1.2-ml polypropylene cluster tubes (Costar, Cambridge, Mass.) in a final volume of 100 μl. The tubes were placed in a 37° C. water bath for 10 min (or as indicated), after which they were transferred to an ice-water bath, and 250 μl of ice-cold fixative (0.5% paraformaldehyde in PBS) was added. Samples were then incubated on ice for 30 min with saturating concentration of either FITC or phycoerytherine-conjugated anti-CD11a, anti-CD11b or anti-CD54 antibodies, washed, and then analyzed by flow cytometry.

human neutrophils = settings: 1 μM, 10 min
Protocol: Human PMNL samples were used to study eosinophil shape change response. PMNL were prepared as described above and cells were resuspended in assay buffer (PBS containing 10 mM Ca^2+ and Mg^2+, 10 mM HEPES, 10 mM glucose, and 0.1% BSA, pH 7.2-7.4). Aliquots of cells (5×10^5 PMNL in 80 μl assay buffer) were pretreated with histamine receptor analogues (diphenhydramine, ranitidine, thioperamide, Compound A or H3 receptor antagonist) for 10 min at room temperature before addition of histamine or chemokines in 1.2-ml polypropylene cluster tubes (Costar, Cambridge, Mass.) in a final volume of 100 μl. […] The cell shape change was analyzed with the flow cytometer (Becton Dickinson, Mountain View, Calif.). […] Cell shape change was monitored in forward scatter signals. […] Samples after antibody staining were analyzed in flow cytometry.
The analysis of eosinophil cell shape change by flow cytometry, known as gated autofluorescence forward scatter (GAFS) assay, allows a quantitative measurement of cell shape change induced by chemoattractants (Sabroe et al., 1999, “Differential regulation of eosinophil chemokine signaling via CCR3 and non-CCR3 pathways,” J. Immunol., 162, 2946-2955). […]

[6] = cited from earlier work
[7] = histamine 0.1 uM + compound A 10 uM
[8] = histamine 1 uM + compound A 10 uM
[9] = histamine 10 uM + compound A 10 uM
[10] = histamine 0.1 uM alone, lower part
[11] = histamine 1 uM alone, lower part
[12] = histamine 10 uM alone, lower part
[13] = after histamine treatment, FIG. 3A

Structure (SMILES): Cc1ccn2cc(-c3ccc(OCCCN4CCCCC4)cc3)nc2c1 [Compound B, 7-methyl-2-[4-(3-piperidin-1-yl-propoxy)-phenyl]-imidazo[1,2-a]pyridine]
IC50 (human eosinophils [2]; read-out: IC50 in blocking 1 μM histamine-induced eosinophil shape change (ineffective up to)): > 30000 nM
effect on histamine-induced eosinophil shape change (human eosinophils [2]): did not show any inhibitory effects
effect on histamine-induced eosinophil chemotaxis [4]: minimal
effect on histamine-induced up-regulation of CD11b/CD18 and CD54 expression (human eosinophils [5]): ineffective

Structure (SMILES): NC(=NCc1ccc(Cl)cc1)SCCCc1cnc[nH]1 [clobenpropit]
agonist effect on eosinophil shape change in whole blood ([1]; FIGS. 9A and 9B): mimic histamine in inducing eosinophil shape change
agonist effect on eosinophil shape change (human eosinophils [2]; FIG. 4C): partial shape change

Structure (SMILES): CN(C)CCOC(c1ccccc1)c1ccccc1 [diphenhydramine]
effect on histamine-induced eosinophil shape change (human eosinophils [2]): did not show any inhibitory effects
effect on histamine-induced eosinophil chemotaxis [4]: minimal
effect on histamine-induced up-regulation of CD11b/CD18 and CD54 expression (human eosinophils [5]): ineffective

Further lines, with some results ahead:

IC50 (human eosinophils [2]; read-out: IC50 in blocking 1 μM histamine-induced eosinophil shape change): 270 nM
IC50 ([4]; Homo sapiens, Eosinophil, 1 μM histamine in lower chamber, read-out: IC50 in blocking 1 μM histamine-induced eosinophil chemotaxis): 86 nM
Structure (SMILES): CN1CCN(C(=O)c2cc3cc(Cl)ccc3[nH]2)CC1 [Compound A, (5-chloro-1H-indol-2-yl)-(4-methyl-piperazin-1-yl)-methanone]
GeoMean (FSC of eosinophils) ([1]; histamine 0.00 uM + Compound A 10 uM): 268.1
% change (increase in FSC compared to unstimulated cells) ([1]; histamine 0 uM + compound A 10 uM): 0.0%
% change (increase in FSC compared to unstimulated cells) [1, 7]: 1.5%
GeoMean (FSC of eosinophils) [1, 7]: 272.1
% change (increase in FSC compared to unstimulated cells) [1, 8]: 1.1%
GeoMean (FSC of eosinophils) [1, 8]: 270.9
% change (increase in FSC compared to unstimulated cells) [1, 9]: −0.3%
GeoMean (FSC of eosinophils) [1, 9]: 267.3
effect on eosinophil shape changes induced by histamine from 0.1 to 10 μM ([1]; whole blood, FIG. 8): blocked
effect on histamine-induced eosinophil shape change (human eosinophils [2]): blocked the histamine-induced eosinophil shape change completely
effect on H4 receptor-dependent shape change (histamine + ranitidine) [3]: antagonized
effect on histamine-induced eosinophil chemotaxis [4]: inhibited completely
effect on histamine-induced up-regulation of CD11b/CD18 and CD54 expression (human eosinophils [5]): abolished

EC50 (human eosinophils [2]; human PMNL, FIG. 3D): 44 nM
EC50 ([4]; Homo sapiens, Eosinophil, Transwell, 2 h): 83 nM
Structure (SMILES): NCCc1c[nH]cn1 [histamine, 4-(2-amino-ethyl)imidazole]
% change (increase in FSC compared to unstimulated cells) ([1]; histamine 0.01 uM, upper part): 6.1%
GeoMean (FSC of eosinophils) ([1]; histamine 0.01 uM, upper part): 239.8
% change (increase in FSC compared to unstimulated cells) [1, 10]: 20.1%
GeoMean (FSC of eosinophils) [1, 10]: 327.7
% change (increase in FSC compared to unstimulated cells) ([1]; histamine 0.1 uM, upper part): 20.0%
GeoMean (FSC of eosinophils) ([1]; histamine 0.1 uM, upper part): 271.3
% change (increase in FSC compared to unstimulated cells) [1, 11]: 18.0%
GeoMean (FSC of eosinophils) [1, 11]: 321.9
% change (increase in FSC compared to unstimulated cells) ([1]; histamine 1 uM, upper part): 16.4%
GeoMean (FSC of eosinophils) ([1]; histamine 1 uM, upper part): 263.3
% change (increase in FSC compared to unstimulated cells) [1, 12]: 11.1%
GeoMean (FSC of eosinophils) [1, 12]: 303.3
% change (increase in FSC compared to unstimulated cells) ([1]; histamine 10 uM, upper part): 17.2%
GeoMean (FSC of eosinophils) ([1]; histamine 10 uM, upper part): 265.0
% change (increase in FSC compared to unstimulated cells) ([1]; histamine 100 uM, upper part): 30.8%
GeoMean (FSC of eosinophils) ([1]; histamine 100 uM, upper part): 295.8
concentration at which a significant eosinophil shape change was detected ([1]; whole blood, FIG. 7): ~0.1 µM
cell shape change on neutrophils (human neutrophils): no effects
cell shape change on eosinophils (human eosinophils [2]; 1 μM, 10 min): significant cell shape change
eosinophil shape change at 100 μM histamine (human eosinophils [2]; 100 μM): no shape change
earliest time at which eosinophil shape change is detected (human eosinophils [2]; [13]): 1 min
time of maximal eosinophil shape change (human eosinophils [2]; [13]): 5 min
time of return to the original cell shape (human eosinophils [2]; [13]): 40 min
combined effect on eosinophil shape change (human eosinophils [2]; histamine combined with MCP-3, sub-optimal concentrations): Partial additive effects
optimal concentration for maximal shape change on eosinophils (human eosinophils [2]; human PMNL, 10 min): ~1 µM
half-life in serum [6]: around 1 min
effect on eosinophil chemotaxis induced by eotaxin-2 and MCP-3 ([4]; 0.5 μM histamine): enhanced
concentration for maximal chemotactic effect on eosinophils ([4]; Transwell): 1 µM
nature of the effect on eosinophil migration ([4]; disruption of concentration gradient): chemotactic but not chemokinetic
expression of CD11a/CD18 (LFA-1) on eosinophils (human eosinophils [5]): not induced
optimal concentration for maximal up-regulation of CD11b/CD18 and CD54 (human eosinophils [5]; 10-minute stimulation): 10 µM
cell surface expression of CD11b/CD18 (Mac-1) and CD54 (ICAM-1) on eosinophils (human eosinophils [5]; 10 min, 37° C.): induced by histamine in a concentration-dependent manner
persistence of the increase in cell surface adhesion molecules (human eosinophils [5]; 60 minutes incubation): maintained
